Data published in patent US8912181B2 (Taiho Pharmaceutical Co., Ltd., priority 2011, dated 2014).
pIC50: −log10 of the molar value.

Assays:
[1] = molecular target: human HSP90 alpha protein (N-terminal, amino acids 2 to 236) (Homo sapiens (Human), UniProt P07900); assay: Determination of HSP90-binding activity (AlphaScreen competitive assay with biotinylated geldanamycin); conditions: inhibition of binding of biotinylated geldanamycin to purified HSP90 N-terminal protein, read-out: HSP-binding activity IC50
In short: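 His-tagged N-terminal construct (aa 2–236) expressed in E. coli and purified was preincubated with compound 2 h at room temperature, then biotinylated geldanamycin (40 nM/well) added for 1 h. AlphaScreen nickel-chelate acceptor/streptavidin donor beads, 1 h dark; percent inhibition calculated against no-compound signal.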

SK-BR-3 cells = assay: Determination of cell growth inhibition (crystal violet staining method); format: cell-based; conditions: Homo sapiens; breast cancer cells SK-BR-3, 72 hours culture with test substance
In short: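 SK-BR-3 cells seeded 5,000/well, cultured 24 h at 37 °C, then exposed to compound for 72 h. Cells fixed with glutaraldehyde, stained with 0.05% crystal violet, eluted and read at 540 nm; percent growth inhibition calculated versus untreated wells.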

Structure (SMILES)	pIC50 [1]	pIC50 (SK-BR-3 cells)
CC(C)OCCNc1cc(-c2cc(C(F)(F)F)nc3c(-n4cnc(-c5ccccc5)c4)cccc23)ccc1C(N)=O [Example 109, 2-(Isopropoxyethylamino)-4-(8-(4-phenyl-1H-imidazol-1-yl)-2-(trifluoromethyl)quinolin-4-yl)benzamide]	5.36	6.68
NC(=O)c1ccc(-c2cc(C(F)(F)F)nc3c(-c4cnc5ccccc5c4)cccc23)cc1N [Example 110, 2-Amino-4-(2′-(trifluoromethyl)-3,8′-biquinolin-4′-yl)benzamide]	6.42	7.00
CC(C)OCCNc1cc(-c2cc(C(F)(F)F)nc3c(-c4cnc5ccccc5c4)cccc23)ccc1C(N)=O [Example 111, 2-(2-Isopropoxyethylamino)-4-(2′-(trifluoromethyl)-3,8′-biquinolin-4′-yl)benzamide]	6.08	7.22
CC(C)c1cc(-c2ccc(C(N)=O)c(NC(C)(C)C)c2)c2cccc(-n3cnc(-c4cnn(C)c4)c3)c2n1 [Example 112, 2-(Tert-butylamino)-4-(2-isopropyl-8-(4-(1-methyl-1H-pyrazol-4-yl)-1H-imidazol-1-yl)quinolin-4-yl)benzamide]	6.30	7.70
CC(C)c1cc(-c2ccc(C(N)=O)c(N)c2)c2cccc(-n3cnc(-c4cnn(C)c4)c3)c2n1 [Example 113, 2-Amino-4-(2-isopropyl-8-(4-(1-methyl-1H-pyrazol-4-yl)-1H-imidazol-1-yl)quinolin-4-yl)benzamide]	7.10	8.00
NC(=O)c1ccc(-c2nc(C(F)(F)F)nc3c(-c4cnc5ccccc5c4)cccc23)cc1NC1CCC(O)CC1 (stereo not shown) [Example 114, 2-(4-Hydroxycyclohexylamino)-4-(8-(quinolin-3-yl)-2-(trifluoromethyl)quinazolin-4-yl)benzamide]	7.15	8.00
NC(=O)c1ccc(-c2nc(C3CC3)nc3c(-c4cnc5ccccc5c4)cccc23)cc1NC1CCC(O)CC1 (stereo not shown) [Example 115, 4-(2-Cyclopropyl-8-(quinolin-3-yl)quinazolin-4-yl)-2-(4-hydroxycyclohexylamino)benzamide]	6.85	8.00
NC(=O)c1ccc(-c2ccnc3c(-c4cnc5ccccc5c4)cccc23)cc1NC1CCC(O)CC1 (stereo not shown) [Example 117, 4-(3,8′-Biquinolin-4′-yl)-2-(4-hydroxycyclohexylamino)benzamide]	6.54	7.30
Cc1ccc(-c2cn(-c3cccc4c(-c5ccc(C(N)=O)c(N)c5)cc(C(F)(F)F)nc34)cn2)cn1 [Example 118, 2-Amino-4-(8-(4-(6-methylpyridin-3-yl)-1H-imidazol-1-yl)-2-(trifluoromethyl)quinolin-4-yl)benzamide]	6.60	7.22
CCNc1cc(-c2cccc3c(-n4cnc(-c5cnn(C)c5)c4)ccnc23)ccc1C(N)=O [Example 119, 2-(Ethylamino)-4-(4-(4-(1-methyl-1H-pyrazol-4-yl)-1H-imidazol-1-yl)quinolin-8-yl)benzamide]	6.08	6.08
CCc1cc(-c2ccc(C(N)=O)c(N)c2)c2cccc(-c3cnc4ccccc4c3)c2n1 [Example 120, 2-Amino-4-(2′-ethyl-3,8′-biquinolin-4′-yl)benzamide]	6.72	7.52
CC(C)c1cc(-c2ccc(C(N)=O)c(N)c2)c2cccc(-c3cnc4ccccc4c3)c2n1 [Example 121, 2-Amino-4-(2′-isopropyl-3,8′-biquinolin-4′-yl)benzamide]	6.74	7.70
CCc1cc(-c2ccc(C(N)=O)c(N)c2)c2cccc(-n3cnc(-c4cccnc4)c3)c2n1 [Example 122, 2-Amino-4-(2-ethyl-8-(4-(pyridin-3-yl)-1H-imidazol-1-yl)quinolin-4-yl)benzamide]	7.05	8.00
CC(C)c1cc(-c2ccc(C(N)=O)c(N)c2)c2cccc(-n3cnc(-c4cccnc4)c3)c2n1 [Example 123, 2-Amino-4-(2-isopropyl-8-(4-(pyridin-3-yl)-1H-imidazol-1-yl)quinolin-4-yl)benzamide]	6.80	8.00
CCc1cc(-c2ccc(C(N)=O)c(N)c2)c2cccc(-n3cnc(-c4ccc(C)nc4)c3)c2n1 [Example 124, 2-Amino-4-(2-ethyl-8-(4-(6-methylpyridin-3-yl)-1H-imidazol-1-yl)quinolin-4-yl)benzamide]	6.89	7.70
Cc1ccc(-c2cn(-c3cccc4c(-c5ccc(C(N)=O)c(N)c5)cc(C(C)C)nc34)cn2)cn1 [Example 125, 2-Amino-4-(2-isopropyl-8-(4-(6-methylpyridin-3-yl)-1H-imidazol-1-yl)quinolin-4-yl)benzamide]	6.80	8.00
CC(C)(C)Nc1cc(-c2nccc3c(-c4cnc5ccccc5c4)cccc23)ccc1C(N)=O [Example 126, 2-(Tert-butylamino)-4-(5-(quinolin-3-yl)isoquinolin-1-yl)benzamide]	5.82	6.46
CC(C)(C)Nc1cc(-c2nccc3c(-n4cnc(-c5cccnc5)c4)cccc23)ccc1C(N)=O [Example 127]	6.68	7.30
Cn1cc(-c2cn(-c3cccc4c(-c5ccc(C(N)=O)c(N)c5)nccc34)cn2)cn1 [Example 128, 2-Amino-4-(5-(4-(1-methyl-1H-pyrazol-4-yl)-1H-imidazol-1-yl)isoquinolin-1-yl)benzamide]	6.51	5.97
Cn1cc(-c2cn(-c3cccc4c(-c5ccc(C(N)=O)c(NC(C)(C)C)c5)ccnc34)cn2)cn1 [Example 130, 2-(Tert-butylamino)-4-(8-(4-(1-methyl-1H-pyrazol-4-yl)-1H-imidazol-1-yl)quinolin-4-yl)benzamide]	6.96	7.22
CC(C)(C)Nc1cc(-c2ccnc3c(-n4cnc(-c5cccnc5)c4)cccc23)ccc1C(N)=O [Example 131, 2-(Tert-butylamino)-4-(8-(4-(pyridin-3-yl)-1H-imidazol-1-yl)quinolin-4-yl)benzamide]	6.59	6.85
Cn1cc(-c2cn(-c3cccc4c(-c5ccc(C(N)=O)c(N)c5)ccnc34)cn2)cn1 [Example 132, 2-Amino-4-(8-(4-(1-methyl-1H-pyrazol-4-yl)-1H-imidazol-1-yl)quinolin-4-yl)benzamide]	6.49	6.02
NC(=O)c1ccc(-c2ccnc3c(-n4cnc(-c5cccnc5)c4)cccc23)cc1N [Example 133]	6.08	5.88
